The record followed here is article PMC6133092, “Synthesis of 2-alkylthio-N-(quinazolin-2-yl)benzenesulfonamide derivatives: anticancer activity, QSAR studies, and metabolic stability” (Monatshefte Fur Chemie, 2018).

Data set [1] is described as follows: Metabolic stability in human liver microsomes with NADPH. Type of data set: in vitro ADME. To be noted: pooled human liver microsomes, pH 7.4, human liver microsomes 0.5 mg/cm^3, NADPH 1 mM, 10 μM compound, 37 °C, read-out: in vitro metabolic half-life t1/2. On the procedure:
Selected derivatives were submitted to metabolic stability study to assess their ability to remain unchanged in the presence of human metabolic enzymes. Human liver microsomes were used as they are a rich source of all common CYP isoenzymes. In vitro incubations were performed in the presence of NADPH as a cofactor and the disappearance of a derivative was followed using LC–MS technique. The in vitro metabolic half-life values are gathered in Fig. 3.
Stock solutions of studied compounds were prepared at concentration of 10 mM in DMSO. […] Incubation mixture contained 10 μM of a studied derivative, 1 mM of NADPH (Sigma-Aldrich) and 0.5 mg/cm^3 of pooled human liver microsomes (HLM, Sigma-Aldrich) in potassium phosphate buffer (0.1 M, pH 7.4). Incubation was carried out in thermostat at 37 °C and started by addition of studied compound. 50 mm^3 samples were taken at starting point and after 5, 15, 30, 45, and 60 min. Enzymatic reaction was terminated by the addition of the equal volume of ice-cold acetonitrile. Incubations were performed in triplicates, the average t1/2 and standard deviation was calculated. Control incubations were performed without NADPH to assess chemical instability. After collection, samples were immediately centrifuged (10 min, 10,000 rpm) and resulted supernatant was directly analyzed or kept in − 80 °C until LC–MS analysis. Natural logarithm of a compound over IS peak area ratio was plotted versus incubation time. Metabolic half-time (t1/2) was calculated from the slope of the linear regression.
LC–MS analysis was performed on an Agilent 1260 system coupled to SingleQuad 6120 mass spectrometer (Agilent Technologies, Santa Clara, CA, USA). Poroshell EC-C18 (2.1 mm × 150 mm, 2.7 μm, Agilent Technologies, Santa Clara, CA, USA) was used in reversed-phase mode with gradient elution starting with 5% of phase A (10 mM ammonium formate in water) and 95% of phase B (10 mM ammonium formate in acetonitrile–water mixture, 95:5 v/v). […] Total analysis time was 15 min at 40 °C, flow rate was 1 cm^3/min and the injection volume was 5 mm^3. The mass spectrometer was equipped with electrospray ion source and operated in positive ionization. Mass analyzer was set individually to each compound to detect [M+H]^+ protonated molecule. MSD parameters of the ESI source were as follows: nebulizer pressure 35 psig (N2), drying gas […] (N2), drying gas temperature 300 °C, capillary voltage 3 kV, fragmentor voltage 150 V.
In general terms: Liver microsomes are vesicles of endoplasmic reticulum, rich in cytochrome P450 enzymes.

A further data set concerns HCT-116 (colon cancer). Put plainly: MTT cell viability assay, HCT-116. Type of data set: cell-based. Particulars: Homo sapiens, 72 h, mean ± SD. As to the method: (§1) All chemicals, if not stated otherwise, were obtained from Sigma-Aldrich (St. Louis, MO, USA). The MCF-7 and HeLa cell lines were purchased from Cell Lines Services (Eppelheim, Germany), the HCT-116 cell line was purchased from ATCC (ATCC-No: CCL-247). Cells were cultured in Dulbecco’s modified Eagle’s medium (DMEM) supplemented with 10% fetal bovine serum, 2 mM glutamine, 100 units/cm^3 penicillin, and 100 μg/cm^3 streptomycin. Cultures were maintained in a humidified atmosphere with 5% CO2 at 37 °C in an incubator (Heraceus, HeraCell).
(§2) Cell viability was determined using the MTT (3-(4,5-dimethylthiazol-2-yl)-2,5-diphenyltetrazolium bromide) assay. Cells were seeded in 96-well plates at a density of 5 × 10^3 cells/well and treated for 72 h with the examined compounds in the concentration range 1–100 μM (1, 10, 25, 50, and 100 μM). Following treatment, MTT (0.5 mg/cm^3) was added to the medium and cells were further incubated for 2 h at 37 °C. Cells were lysed with DMSO and the absorbance of the formazan solution was measured at 550 nm with a plate reader (Victor, 1420 multilabel counter). […] The experiment was performed in triplicate. Values are expressed as the mean ± SD of at least three independent experiments.

The next data set relates to HOP-92. The data set can be described thus: NCI-60 single dose screen, HOP-92. Type of data set: cell-based. To be noted: Homo sapiens, NSCLC, single concentration 10^−5 M, read-out: IGP (inhibition growth percent) HOP-92. As to the method: (§3) Aside from above, compounds 9–14 and 17–24 were also submitted to National Cancer Institute and evaluated for the cytotoxic effects toward 60 cell lines at a single dose of 10 μM (Table 2). […] As it was summarized in Table 2, leukemia RPMI-8226 and NSCLC A549/ATCC were most sensitive to compounds 18, 22, and 24. These derivatives in 10 μM concentration inhibited the growth of approximately 50% cells belonging to the above mention cell lines.
(§4) Cytotoxicity evaluation of compounds 9–14 and 17–24 was performed at the National Cancer Institute according to NCI-60 DTP human tumor cell line screen procedure.

A further data set deals with UACC-62. Put plainly: NCI-60 single dose screen, UACC-62. Type of data set: cell-based. Particulars: Homo sapiens, Melanoma, single concentration 10^−5 M, read-out: IGP (inhibition growth percent) UACC-62. As to the method: as §3, §4
For another data set, the system named is EKVX. Put plainly: NCI-60 single dose screen, EKVX. The data set is classed as cell-based. Particulars: Homo sapiens, NSCLC, single concentration 10^−5 M, read-out: IGP (inhibition growth percent) EKVX. On the procedure:
as §3, §4

The next data set concerns HCT-116. Put plainly: NCI-60 single dose screen, HCT-116. Type of data set: cell-based. Particulars: Homo sapiens, Colon cancer, single concentration 10^−5 M, read-out: IGP (inhibition growth percent) HCT-116. As to the method: as §3, §4
A further data set relates to MCF-7 (breast cancer). Put plainly: MTT cell viability assay, MCF-7. The data set is classed as cell-based, human. Particulars: Homo sapiens, MCF7, 72 h, mean ± SD. As to the method:
(§5) All of the newly synthesized compounds 9–24 were evaluated for their effects on cell viability in three human cancer cell lines: HCT-116 (colon cancer), HeLa (cervical cancer), and MCF-7 (breast cancer). Cisplatin was used as reference drug. […] Considering the activity of derivatives 9–12, 15, 17, 18, and 21–24, it can be noticed that phenyl group as R^3 bring an increase of cytotoxicity in comparison with methyl in place of R^3. However, this impact seems to be the most important for compounds with the bulky group in R^1 and generally, it is less for a set of derivatives with methyl group substituted in R^1 (9–12).
as §1, §2

Another data set relates to SR. Put plainly: NCI-60 single dose screen, SR. The data set is classed as cell-based. Particulars: Homo sapiens, Leukemia, single concentration 10^−5 M, read-out: IGP (inhibition growth percent) SR. On the procedure:
as §3, §4

A further data set has as its system MCF-7. The data set can be described thus: NCI-60 single dose screen, MCF-7. The data set is classed as cell-based. To be noted: Homo sapiens, MCF7; Breast cancer; single concentration 10^−5 M; read-out: IGP (inhibition growth percent) MCF-7. As to the method:
as §3, §4

The next data set deals with HeLa (cervical cancer). The data set can be described thus: MTT cell viability assay, HeLa. Type of data set: cell-based. Particulars: Homo sapiens. As to the method: as §1, §2
For orientation: Tetrazolium assays rely on reduction of a dye to a coloured formazan, in cell work by metabolically active cells.

A further data set concerns RPMI-8226. The data set can be described thus: NCI-60 single dose screen, RPMI-8226. Type of data set: cell-based. To be noted: Homo sapiens, RPMI-8226, Leukemia; single concentration 10^−5 M; read-out: IGP (inhibition growth percent) RPMI-8226. On the procedure:
as §3, §4

A further data set deals with UO-31. Put plainly: NCI-60 single dose screen, UO-31. To be noted: Homo sapiens, Renal cancer, single concentration 10^−5 M, read-out: IGP (inhibition growth percent) UO-31. The data set is classed as cell-based. As to the method: as §3, §4
The subject of the next data set is MOLT-4. Put plainly: NCI-60 single dose screen, MOLT-4. Particulars: Homo sapiens, Leukemia, single concentration 10^−5 M, read-out: IGP (inhibition growth percent) MOLT-4. Type of data set: cell-based. As to the method: as §3, §4
In a further data set the test system is HCT-116, HeLa, MCF-7. The data set can be described thus: MTT assays, mean over three tested cell lines. The data set is classed as cell-based. To be noted: Homo sapiens, mean of HCT-116, HeLa, read-out: mean IC50 against three tested cell lines. On the procedure: as §5, §2
The next data set has as its system NCI-H522. The data set can be described thus: NCI-60 single dose screen, NCI-H522. Particulars: Homo sapiens, NSCLC, single concentration 10^−5 M, read-out: IGP (inhibition growth percent) NCI-H522. The data set is classed as cell-based. On the procedure: as §3, §4
The subject of another data set is PC-3. Put plainly: NCI-60 single dose screen, PC-3. Type of data set: cell-based. Particulars: Homo sapiens, Prostate cancer, single concentration 10^−5 M, read-out: IGP (inhibition growth percent) PC-3. As to the method: as §3, §4
For another data set, the system named is A549/ATCC. Put plainly: NCI-60 single dose screen, A549/ATCC. The data set is classed as cell-based. Particulars: Homo sapiens, A549, NSCLC; single concentration 10^−5 M; read-out: IGP (inhibition growth percent) A549/ATCC. As to the method: as §3, §4
The subject of the next data set is HaCaT. The data set can be described thus: Cytotoxic effect against non-carcinogenic cell line HaCaT. Type of data set: cell-based. As to the method:
For the compounds with the strongest cytotoxicity (12, 18, 22, and 24), an investigation of cytotoxic effect against non-carcinogenic cell line HaCaT was done. […] The activity against HCT-116 was 1.7-, 1.6-, 1.5-, and 1.4-fold higher when compared with HaCaT cell line, for compounds 12, 18, 22, and 24, respectively.
as §2

Setting [2] is: Table 4, repeats Table 1 values without SD and unit.

Each structure is given as a SMILES string.

One may read the IC50 as the midpoint of a concentration-inhibition curve. The melting point is the temperature of the solid-liquid transition. `Cc1cc(S(=O)(=O)Nc2nc(-c3ccccc3)c3ccccc3n2)c(SCc2ccccc2)cc1Cl` [Compound 10, 2-Benzylthio-4-chloro-5-methyl-N-(4-phenylquinazolin-2-yl)benzenesulfonamide] returned a melting point of 192 to 198 °C. Also, the half-life at 10 μM in [1] stood at 49.2 min. In the data set on HCT-116 (colon cancer), this compound had an IC50 of 44 ± 1 µM. The inhibition at 10 µM in the data set on HOP-92 amounted to 17%. Besides, the inhibition at 10 µM in the data set with UACC-62 turned out to be 29%. The inhibition at 10 µM with EKVX amounted to 6%. Also, the inhibition at 10 µM with HCT-116 came out at 8%. Further, half-maximal inhibition in the data set on MCF-7 (breast cancer) (IC50) was put at 57 ± 1 µM. Also, the inhibition at 10 µM in the data set on SR was 14%. Also, in the data set with MCF-7, the inhibition at 10 µM stood at 9%. In the data set on HeLa (cervical cancer) (MTT, 72 h, mean ± SD), this compound registered an IC50 of 61 ± 2 µM. Besides, half-maximal inhibition in the data set with HeLa (cervical cancer) (setting [2]) (IC50) required 61 µM. For the same compound, the inhibition at 10 µM in the data set on RPMI-8226 turned out to be 25%. Besides, the inhibition at 10 µM in the data set with UO-31 was found to be 5%. Also, the inhibition at 10 µM with MOLT-4 amounted to 25%.

`Cc1cc(S(=O)(=O)Nc2nc(-c3ccccc3)c3ccccc3n2)c(SCc2cc3c(cc2Cl)OCO3)cc1Cl` [Compound 12, 4-Chloro-2-(6-chlorobenzo[d][1,3]dioxol-5-ylmethylthio)-5-methyl-N-(4-phenylquinazolin-2-yl)benzenesulfonamide]: the half-life at 10 μM in data set [1] is 48.1 min. Moreover, the IC50 in the data set with HCT-116 (colon cancer) is 37 ± 1 µM; in the data set on HCT-116, HeLa, MCF-7, 44.7 µM; in the data set on MCF-7 (breast cancer) it was 51 ± 2 µM; in the data set with HeLa (cervical cancer) (MTT, 72 h, mean ± SD) it was 46 ± 1 µM; in the data set with HeLa (cervical cancer) (setting [2]), 46 µM; in the data set with HaCaT (Homo sapiens, HaCaT, non-carcinogenic cell line, mean ± SD), 64 ± 2 µM. For the same compound, the inhibition at 10 µM was 33% with UACC-62; 6% with HCT-116; 16% in the data set on NCI-H522; 5% in the data set on MCF-7; 14% in the data set with PC-3; 14% in the data set with A549/ATCC. Also, the inhibition at 10 µM in the data set with RPMI-8226 was found to be 2%; in the data set with UO-31, 25%; with MOLT-4, 12%. In addition, the “activity against HCT-116 fold higher compared with HaCaT” value in the data set on HaCaT (selectivity HCT-116 vs HaCaT) is reported as 1.7 fold. Also, the “inhibition of growth of HaCaT cells fold weaker than HeLa cells” value with HaCaT (selectivity HeLa vs HaCaT) was determined as 1.4 fold.
